From PubChem BioAssay (NCI) come the findings set out here.

What all share (test): NCI tumour cell line growth inhibition, 48 h
For assay [1], the system named is COLO 205 colon.
Assay [2] has as its system HCC-2998 colon.
Assay [3] relates to HS 578T breast.
Assay [4] relates to MCF7 breast.
The subject of assay [5] is NCI-H23 lung.
Assay [6] has as its system PC-3 prostate.
Assay [7] relates to SF-539 CNS.
Assay [8] deals with SK-OV-3 ovarian.
Assay [9] concerns TK-10 renal.
Assay [10] relates to BT-549 breast.

Molecules are shown by their SMILES.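 Five concentrations, 48 hours, 96-well plates. GI50: concentration for 50% inhibition of growth. TGI denotes the concentration required for complete inhibition of growth.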

Take `Cc1ccc2nc(Nc3ccccc3C)c(Nc3ccccc3C)nc2c1`: the TGI was 30.6 µM in assay [1]; 61.3 µM in assay [2]; over 100 µM in [3]; over 100 µM in [4]; 45.6 µM in [5]; over 100 µM in assay [6]. In addition, the TGI in assay [7] was over 100 µM; in [8] it was over 100 µM; in [9], over 92.7 µM.
On to `CCc1nc2c([nH]1)C(=O)c1ccccc1C2=O`, for which the TGI in assay [2], in assay [5], in assay [7], in assay [8] and in [9] was over 100 µM throughout.
Consider `CCOC(=O)c1c(-c2ccc(OC)cc2)c(C#N)c(=S)n(C2OC(CO)C(O)C(O)C2O)c1C` (configuration not stated), for which the TGI in [1], in [2], in assay [4], in assay [5], in [6] and in [7] was over 100 µM in each case. Also, the TGI in assay [8] and in assay [9] was over 100 µM each time.
For `CC(C)NC(=O)OCc1c(COC(=O)NC(C)C)n(C)c2c1ccc1cc(Cl)c(Cl)cc12`, the TGI in [10] was 30.7 µM; in assay [1] it was 22.8 µM; in assay [3], 68.9 µM; in assay [4], 14.9 µM; in assay [5] it was 31.1 µM; in [6], 29 µM. Besides, the figures for the TGI in [7], in assay [8] and in assay [9] were 27.1 µM, 63.3 µM and 19.4 µM, respectively.
For the compound `Cn1c(=O)c2[nH]c(Nc3cccc(Cl)c3)nc2n(C)c1=O`, the TGI in assay [1], in assay [2], in [4], in assay [5], in assay [6] and in assay [8] was over 10 µM each time. This compound displayed a TGI in assay [9] of over 10 µM.
For the compound `O=c1ccn([C@@H]2C=C(CO)[C@@H](O)[C@H]2O)c(=O)[nH]1`, the TGI in assay [1], in assay [2], in assay [4], in assay [5], in [7] and in assay [8] was over 625 µM throughout.
Turning to `CC1=NN(c2cccc(Cl)c2)C2(C1=Cc1ccc(N(C)C)cc1)C(Cl)C(=O)N2c1nc2ccccc2s1` (configuration not stated), the TGI in [2] was 41.8 µM; in [3] it was over 100 µM; in assay [4], over 100 µM; in assay [5], over 100 µM; in assay [6] it was over 100 µM; in [7], over 100 µM. In addition, the TGI in assay [8] and in assay [9] was over 100 µM in each case.
As to `CCOC(=O)OC1(c2ccccc2)CCN(C)CC1`, the TGI in [1], in [2], in [3], in [4], in assay [5] and in [6] was over 100 µM throughout. In addition, the TGI in assay [7], in assay [8] and in assay [9] was over 100 µM in each case.
Consider `CN(C)CCN1C(=O)N(CCN(C)C)c2c3cc(O)ccc3nc3c([N+](=O)[O-])ccc1c23`, for which the TGI is 40.6 µM in assay [10]; 23.3 µM in assay [1]; 25.8 µM in assay [2]; 45.8 µM in assay [3]; 36.6 µM in assay [5]; 75 µM in assay [6]. The compound also had a TGI in assay [9] of 33.6 µM.
In the case of `CCOP(=O)(COCCn1nc(Br)c(=O)[nH]c1=O)OCC`, the TGI in assay [1], in assay [2], in assay [3], in assay [4], in assay [5] and in assay [6] was over 100 µM throughout. In [7], this compound registered a TGI of over 100 µM.
Turning to `CC1OC2OC3C(OCC(O)C3O)OC(=O)[C@]34CCC(C)(C)CC3C3=CCC5[C@@]6(C)C[C@H](O)[C@H](OC7OC(CO)C(O)C(O)C7OC7OC(COC(=O)CC(C)(O)CC(=O)OC1C(OC1OC(CO)C(O)C(O)C1O)C2O)C(O)C(O)C7O)[C@@](C)(CO)C6CC[C@@]5(C)[C@]3(C)CC4` (some centres not stated), the TGI in [10] is 19.3 µM; in assay [1] it was 4.52 µM; in [2], 2.65 µM; in [3], 18.6 µM; in assay [5], 3.23 µM; in assay [6] it was 6.85 µM. Further, the TGI in [7] was 15.5 µM; in [8] it was 22.4 µM; in assay [9], 7.92 µM.
For the compound `CC(Br)CN(CC(C)Br)c1ccc2c(c1)Cc1ccccc1-2` (configuration not stated), the TGI in assay [10] is 35.1 µM; in [1], 27.5 µM; in assay [3], 41.7 µM; in assay [4] it was 19.6 µM; in [5], 26.9 µM; in [6], 22.7 µM. In addition, the TGI in [8] came out at 31.1 µM; in [9], 26.2 µM.
Take `O=C1c2cc3c(cc2-c2c1c1cc(F)c(F)cc1c(=O)n2C[C@H](O)CO)OCO3`: the GI50 is 0.0727 µM in assay [10]; 0.103 µM in [1]; 0.14 µM in [2]; 0.939 µM in assay [3]; 0.0611 µM in [5]; 0.127 µM in [6]. Also, the GI50 in [7] was 0.0288 µM; in assay [8] it was 0.0481 µM; in assay [9], 0.335 µM. The TGI was 2.22 µM in assay [10]; 1.2 µM in assay [1]; 11.2 µM in assay [2]; over 100 µM in assay [3]; 0.613 µM in [5]; over 100 µM in assay [6]. The figures for the TGI in [7], in assay [8] and in assay [9] were 0.14 µM, 0.641 µM and 2.11 µM, respectively.
`CSc1ncnc2c1cnn2Cc1cn(COCC(O)CO)nn1` (configuration not stated): the TGI in [10], in assay [1], in assay [2], in [4], in [5] and in assay [6] was over 100 µM throughout. Moreover, the TGI in assay [7], in [8] and in assay [9] was over 100 µM each time.
For the compound `COc1cc2c3cc1Oc1cc(ccc1O)C[C@@H]1c4c(cc(OC)c(O)c4Oc4ccc(cc4)C[C@@H]3[N+](C)(C)CC2)CC[N+]1(C)C`, the TGI in assay [10] is over 100 µM; in [1], over 100 µM; in assay [3], 85.1 µM; in [4], over 100 µM; in assay [5] it was over 100 µM; in [6], over 100 µM. For the same compound, the TGI was 28.3 µM in assay [7] and over 100 µM in assay [9].
